# Measured values as given in patent US12421294B2, “Truncated epiderimal growth factor receptor (EGFRt) for transduced t cell selection” (City of Hope, priority 2009, dated 2025).
# Assays:
# [1] = system: control T cell line; assay: MPA resistance culture, control T cells without IMPDH2dm; type: cell-based, human; details: 1 uM MPA, control T cell line lacking IMPDH2dm
# [2] = system: CD19CAR^+EGFRt^+IMPDH2dm^+ Line E cells; assay: MPA resistance culture, IMPDH2dm-expressing Line E cells; type: cell-based, human; details: 1 uM MPA
smiles,measurement,setting,value
"COc1c(C)c2c(c(O)c1C/C=C(\C)CCC(=O)O)C(=O)OC2 [MPA, mycophenolic acid]",survival and/or proliferation in MPA,[1],inhibition
same,survival and/or proliferation in MPA,[2],not inhibited
